Measured values: US10584133B2, “Thienopyrimidinone compounds” (BioTheryX, Inc., priority 2018, dated 2020)

What was measured:
PDE6D = molecular target: T1, PDE6D (Homo sapiens, UniProt O43924+Q96SW2); assay: PDE6 degradation assay (Western blot, MV-4-11 cells); assay type: cell-based; conditions: 6-8 hours
T1 construct: Whole cell extracts were prepared using RIPA buffer; endogenous in cells; host or cells: MV-4-11
Experimental: (§1) MV-4-11 cells were grown in RPMI 1640 media supplemented with 10% fetal bovine serum, streptomycin and penicillin.
(§2) Cells were cultured at approximately 10^6 cells per mL and incubated in DMSO or the indicated compounds for 6-8 hours. Whole cell extracts were prepared using RIPA buffer according to manufacturer's protocol (Pierce). Briefly, 3×10^6 cells were washed once in PBS, the cell pellets were resuspended in RIPA buffer and allowed to incubate for 15 minutes on ice. Cells debris was removed by centrifugation and the cleared whole cell lysates were transferred to new tubes for further analysis.
(§3) For Western blot analysis, whole cell protein extracts were separated on 4-12% SDS-polyacrylamide gels, transferred to nitrocellulose and probed with the indicated primary antibodies. Membranes were subsequently washed and probed with the appropriate IRDye secondary antibodies (LI-COR). The signal was detected using the Odyssey Imaging System (LI-COR).
(§4) The following antibodies were used in these studies: Anti-eRF3/GSPT1: Abcam, ab126090 (Cambridge, Mass.); Anti-Ikaros: Abcam, ab191394 (Cambridge, Mass.); Anti-CK1α: Abcam, ab108296 (Cambridge, Mass.); Anti-PDE6D: Santa Cruz Biotechnology, sc-166854 (Dallas, Tex.); β-actin (8H10D10) mouse monoclonal antibody: Cell Signaling Technology, #3700 (Danvers, Mass.); IRDye 680RD Goat anti-rabbit antibody: LI-COR, 926-68071 (Lincoln, Nebr.); IRDye 800CW Goat anti-mouse antibody: LI-COR, 926-32210 (Lincoln, Nebr.).

MV-4-11 cells = assay: MV-4-11 cell viability assay (CellTiter-Glo); assay type: cell-based; conditions: 3 days
Experimental: MV-4-11 cells were cultured in RPMI 1640 media supplemented with 10% fetal bovine serum, streptomycin and penicillin, and were plated in white walled 96-well plates at 2500 cells/well. Cells were incubated in DMSO (control) or the indicated compounds for 3 days at 37° C. and 5% CO2. Following the incubation period, 100 μL of CellTiterGlow (CTG) reagent (CellTiter-Glo® Luminescent Cell Viability Assay, Promega (Madison, Wis.)) was added to each well. Following a 10 minutes incubation with shaking, luminescence was measured using the EnVision Multimode plate reader.

Helios = molecular target: T2, Helios (Homo sapiens, UniProt Q96SW2+Q9UKS7); assay: Helios assay (Western blot degradation, MV-4-11 cells); assay type: cell-based; conditions: 6-8 hours
T2 construct: Whole cell extracts were prepared using RIPA buffer; endogenous in cells; host or cells: MV-4-11
T2 sequence (Q9UKS7 whole entry): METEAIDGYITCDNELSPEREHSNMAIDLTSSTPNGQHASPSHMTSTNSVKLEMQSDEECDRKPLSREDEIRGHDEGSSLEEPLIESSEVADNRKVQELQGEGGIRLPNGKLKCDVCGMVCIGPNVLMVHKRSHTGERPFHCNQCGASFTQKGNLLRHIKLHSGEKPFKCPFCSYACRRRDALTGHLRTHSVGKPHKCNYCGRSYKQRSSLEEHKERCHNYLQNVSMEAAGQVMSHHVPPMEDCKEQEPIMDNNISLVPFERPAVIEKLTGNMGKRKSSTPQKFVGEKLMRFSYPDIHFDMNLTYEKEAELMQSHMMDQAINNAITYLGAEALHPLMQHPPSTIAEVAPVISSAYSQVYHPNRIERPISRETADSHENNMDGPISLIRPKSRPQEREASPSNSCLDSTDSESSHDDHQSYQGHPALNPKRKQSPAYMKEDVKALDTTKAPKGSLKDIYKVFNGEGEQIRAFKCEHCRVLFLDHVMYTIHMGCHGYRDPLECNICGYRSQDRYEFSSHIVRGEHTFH
T2 sequence (Q96SW2 whole entry): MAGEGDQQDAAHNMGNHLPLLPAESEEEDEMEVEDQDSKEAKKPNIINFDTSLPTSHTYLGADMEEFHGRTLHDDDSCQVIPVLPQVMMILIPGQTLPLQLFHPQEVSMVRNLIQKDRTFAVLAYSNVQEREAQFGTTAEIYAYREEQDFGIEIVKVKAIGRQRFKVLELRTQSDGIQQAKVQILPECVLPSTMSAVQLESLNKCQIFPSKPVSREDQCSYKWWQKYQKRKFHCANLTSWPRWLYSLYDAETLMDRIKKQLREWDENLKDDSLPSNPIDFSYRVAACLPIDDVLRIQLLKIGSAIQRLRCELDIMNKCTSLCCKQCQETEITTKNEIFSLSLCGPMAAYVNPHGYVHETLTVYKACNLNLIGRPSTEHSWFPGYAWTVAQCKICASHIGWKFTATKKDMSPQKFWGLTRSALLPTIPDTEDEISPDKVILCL
T2 sequence (Q16531 whole entry partner): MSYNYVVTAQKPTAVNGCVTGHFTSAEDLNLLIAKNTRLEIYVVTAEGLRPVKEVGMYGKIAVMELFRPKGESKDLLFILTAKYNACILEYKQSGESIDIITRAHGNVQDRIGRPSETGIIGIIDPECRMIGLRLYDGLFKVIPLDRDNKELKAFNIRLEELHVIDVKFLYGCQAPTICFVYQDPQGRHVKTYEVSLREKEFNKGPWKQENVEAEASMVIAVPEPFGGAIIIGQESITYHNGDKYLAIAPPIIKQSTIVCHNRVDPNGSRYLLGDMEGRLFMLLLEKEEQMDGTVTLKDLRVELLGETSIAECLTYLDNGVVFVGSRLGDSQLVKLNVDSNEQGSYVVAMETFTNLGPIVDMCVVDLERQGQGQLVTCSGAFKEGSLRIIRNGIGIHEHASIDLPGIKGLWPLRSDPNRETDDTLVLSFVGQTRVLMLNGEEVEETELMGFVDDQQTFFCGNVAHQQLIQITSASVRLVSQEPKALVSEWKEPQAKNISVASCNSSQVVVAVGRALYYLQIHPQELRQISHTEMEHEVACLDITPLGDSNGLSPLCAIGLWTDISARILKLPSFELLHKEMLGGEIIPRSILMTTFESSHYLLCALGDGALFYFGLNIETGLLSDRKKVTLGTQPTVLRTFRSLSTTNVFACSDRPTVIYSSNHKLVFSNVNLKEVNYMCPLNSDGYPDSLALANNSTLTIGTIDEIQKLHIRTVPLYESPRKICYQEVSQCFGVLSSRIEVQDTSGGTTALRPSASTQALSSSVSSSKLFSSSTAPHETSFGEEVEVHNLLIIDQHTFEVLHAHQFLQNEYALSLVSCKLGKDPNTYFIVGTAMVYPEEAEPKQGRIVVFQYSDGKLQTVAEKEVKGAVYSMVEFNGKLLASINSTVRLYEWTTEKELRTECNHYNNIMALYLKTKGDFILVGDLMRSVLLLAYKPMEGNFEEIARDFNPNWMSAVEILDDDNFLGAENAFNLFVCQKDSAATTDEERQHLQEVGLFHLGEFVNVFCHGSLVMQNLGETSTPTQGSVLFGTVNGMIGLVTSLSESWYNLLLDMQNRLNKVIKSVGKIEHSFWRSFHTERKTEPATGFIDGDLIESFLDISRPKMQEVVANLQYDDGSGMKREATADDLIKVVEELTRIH
Experimental: as §1, §2, §3, §4

CK1α = molecular target: T3, CK1α (Homo sapiens, UniProt P48729+Q96SW2); assay: CK1α degradation assay (Western blot, MV-4-11 cells); assay type: cell-based; conditions: 6-8 hours
T3 construct: Whole cell extracts were prepared using RIPA buffer; endogenous in cells; host or cells: MV-4-11
T3 sequence (P48729 whole entry): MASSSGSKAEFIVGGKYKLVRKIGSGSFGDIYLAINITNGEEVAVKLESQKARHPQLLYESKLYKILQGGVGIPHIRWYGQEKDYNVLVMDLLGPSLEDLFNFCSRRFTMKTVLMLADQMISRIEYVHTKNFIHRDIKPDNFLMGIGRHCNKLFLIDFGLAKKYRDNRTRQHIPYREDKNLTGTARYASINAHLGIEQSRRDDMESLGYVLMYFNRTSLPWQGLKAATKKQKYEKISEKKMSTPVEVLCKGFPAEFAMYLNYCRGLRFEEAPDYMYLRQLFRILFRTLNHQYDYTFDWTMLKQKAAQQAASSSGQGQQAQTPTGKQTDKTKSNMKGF
T3 sequence (Q96SW2 whole entry): as the sequence (Q96SW2 whole entry) above
T3 sequence (Q16531 whole entry partner): as the sequence (Q16531 whole entry partner) above
Experimental: as §1, §2, §3, §4

GSPT1 = GSPT1 degradation assay (Western blot, MV-4-11 cells); assay type: cell-based; conditions: 6-8 hours
Experimental: as §1, §2, §3, §4

IKAROS = molecular target: T4, IKAROS (Homo sapiens, UniProt Q13422+Q96SW2); assay: IKAROS degradation assay (Western blot, MV-4-11 cells); assay type: cell-based; conditions: 6-8 hours
T4 construct: endogenous in cells; host or cells: MV-4-11
T4 sequence (Q13422 whole entry): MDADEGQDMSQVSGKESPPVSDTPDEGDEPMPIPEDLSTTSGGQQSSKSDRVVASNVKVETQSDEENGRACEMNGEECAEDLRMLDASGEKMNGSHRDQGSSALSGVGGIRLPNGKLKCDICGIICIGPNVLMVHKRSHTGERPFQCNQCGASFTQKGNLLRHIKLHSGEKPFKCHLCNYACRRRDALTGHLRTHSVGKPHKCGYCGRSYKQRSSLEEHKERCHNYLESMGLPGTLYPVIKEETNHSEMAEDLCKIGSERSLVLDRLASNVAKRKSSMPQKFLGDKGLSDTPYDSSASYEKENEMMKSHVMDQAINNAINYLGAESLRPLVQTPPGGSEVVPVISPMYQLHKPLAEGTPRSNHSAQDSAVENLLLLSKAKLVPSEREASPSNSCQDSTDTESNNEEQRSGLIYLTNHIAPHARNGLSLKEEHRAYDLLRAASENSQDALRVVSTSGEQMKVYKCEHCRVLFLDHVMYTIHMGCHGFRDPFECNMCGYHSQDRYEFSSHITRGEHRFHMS
T4 sequence (Q96SW2 whole entry): as the sequence (Q96SW2 whole entry) above
T4 sequence (Q16531 whole entry partner): as the sequence (Q16531 whole entry partner) above
Experimental: as §1, §2, §3, §4

IL-6 = IL-6 in LPS-induced PBMCs / CD14+ monocytes (Meso Scale); assay type: cell-based; conditions: LPS 100 ng/mL, 18-24 h
Experimental: (§5) Either frozen primary blood mononuclear cells (PBMCs) or frozen CD14+ mobilized peripheral blood monocytes were purchased from AllCells (PB003F, Normal Peripheral Blood MNC (Alameda, Calif.)). Cells were quick thawed, washed 1-time with RPMI-1640 (10% FBS/1% Pen-Strep) and plated in 96 well plates at 200,000 cells per well. Cells were pretreated with DMSO only or Compound 12 for 1 h and then induced with 100 ng/mL lipopolysaccharide (LPS) for 18-24 h. The supernatant was analyzed for IL-1β, IL-6, and TNFα, using Meso Scale assay according to manufacturer's protocol. The negative control wells were treated with DMSO.

IL-1β = IL-1β in LPS-induced PBMCs / CD14+ monocytes (Meso Scale); assay type: cell-based; conditions: LPS 100 ng/mL, 18-24 h
Experimental: as §5

IL-2 = IL-2 in anti-CD3 stimulated PBMCs (Mesoscale); assay type: cell-based, human; conditions: fold difference from DMSO control, 24 h
Experimental: For the IL-2 analysis, 96 well plates were precoated with 1 μg/mL anti-human CD3 antibody (OKT3, eBioscience Inc., San Diego, Calif.). After washing with PBS, Compound 12 was added (50 μL/well) followed by PBMCs diluted at 3-4 million cells/mL (150 μL/well). Plates were incubated for 24 h and the supernatants collected for Mesoscale IL-2 analysis. IL-2 activity is measured as fold difference from the DMSO control.

TNFα = TNFα in LPS-induced PBMCs / CD14+ monocytes (Meso Scale); assay type: cell-based; conditions: LPS 100 ng/mL, 18-24 h
Experimental: as §5

T1 sequence (O43924 whole entry): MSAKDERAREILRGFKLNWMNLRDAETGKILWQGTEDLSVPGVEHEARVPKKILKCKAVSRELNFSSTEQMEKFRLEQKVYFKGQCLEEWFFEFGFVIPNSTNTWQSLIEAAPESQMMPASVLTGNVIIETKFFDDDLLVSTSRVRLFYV
T1 sequence (Q96SW2 whole entry): as the sequence (Q96SW2 whole entry) above
T1 sequence (Q16531 whole entry partner): as the sequence (Q16531 whole entry partner) above

| SMILES | PDE6D % Degradation at 15 μM (PDE6D) | PDE6D % Degradation at 30 μM (PDE6D) | MV-4-11 Cell Viability % DMSO at 15 μM (MV-4-11 cells) | MV-4-11 Cell Viability % DMSO at 30 μM (MV-4-11 cells) | CK1α % Degradation at 15 μM (CK1α) | CK1α % Degradation at 30 μM (CK1α) | IKAROS % Degradation at 15 μM (IKAROS) | IKAROS % Degradation at 30 μM (IKAROS) | further results |
| --- | --- | --- | --- | --- | --- | --- | --- | --- | --- |
| Cc1ccc(NC(=O)NCc2cc3nc(C)n(C4CCC(=O)NC4=O)c(=O)c3s2)cc1Cl (stereo not drawn) [Compound 13, 1-(3-chloro-4-methylphenyl)-3-((3-(2,6-dioxopiperidin-3-yl)-2-methyl-4-oxo-3,4-dihydrothieno[3,2-d]pyrimidin-6-yl)methyl)urea] | 4% | 9% | 2 % DMSO | 0.73 % DMSO | 31% | 35% | 65% | 55% | Helios % Degradation at 15 μM (Helios): 50%; Helios % Degradation at 30 μM (Helios): 21%; GSPT1 % Degradation at 15 μM (GSPT1): 87%; GSPT1 % Degradation at 30 μM (GSPT1): 87% |
| Cc1nc2c(CN)scc2c(=O)n1C1CCC(=O)NC1=O.O=C(O)C(F)(F)F (stereo not drawn) [Compound 11, 3-(7-(aminomethyl)-2-methyl-4-oxothieno[3,4-d]pyrimidin-3(4H)-yl)piperidine-2,6-dione 2,2,2-trifluoroacetate] | 30% | 41% | 94 % DMSO | 78 % DMSO | 17% | 0% |  |  |  |
| Cc1nc2cc(Br)sc2c(=O)n1C1CCC(=O)NC1=O (stereo not drawn) [Compound 4, 3-(6-bromo-2-methyl-4-oxothieno[3,2-d]pyrimidin-3(4H)-yl)piperidine-2,6-dione] | 49% | 75% | 100 % DMSO | 97 % DMSO |  |  |  |  |  |
| Cc1nc2sccc2c(=O)n1C1CCC(=O)NC1=O (stereo not drawn) [Compound 3, 3-(2-methyl-4-oxothieno[2,3-d]pyrimidin-3(4H)-yl)piperidine-2,6-dione] | 0% | 10% | 97 % DMSO | 94 % DMSO |  |  |  |  |  |
| Cc1nc2scc(N)c2c(=O)n1C1CCC(=O)NC1=O (stereo not drawn) [Compound 10, 3-(5-amino-2-methyl-4-oxothieno[2,3-d]pyrimidin-3(4H)-yl)piperidine-2,6-dione] |  |  |  |  |  |  | 49% | 53% | Helios % Degradation at 15 μM (Helios): 0%; Helios % Degradation at 30 μM (Helios): 16% |
| Cc1nc2cscc2c(=O)n1C1CCC(=O)NC1=O (stereo not drawn) [Compound 2, 3-(2-methyl-4-oxothieno[3,4-d]pyrimidin-3(4H)-yl)piperidine-2,6-dione] | 0% | 24% |  |  |  |  | 0% | 7% |  |
| Cc1nc2ccsc2c(=O)n1C1CCC(=O)NC1=O (stereo not drawn) [Compound 1, 3-(2-methyl-4-oxothieno[3,2-d]pyrimidin-3(4H)-yl)piperidine-2,6-dione] |  |  |  |  |  |  |  |  | GSPT1 % Degradation at 15 μM (GSPT1): 23%; GSPT1 % Degradation at 30 μM (GSPT1): 0% |
| Cc1cc2c(=O)n(C3CCC(=O)NC3=O)c(C)nc2s1 (stereo not drawn) [Compound 6, 3-(2,6-dimethyl-4-oxothieno[2,3-d]pyrimidin-3(4H)-yl)piperidine-2,6-dione] |  |  | 89 % DMSO | 91 % DMSO |  |  |  |  |  |
| Cc1nc2scc(Br)c2c(=O)n1C1CCC(=O)NC1=O (stereo not drawn) [Compound 5, 3-(5-bromo-2-methyl-4-oxothieno[2,3-d]pyrimidin-3(4H)-yl)piperidine-2,6-dione] | 0% | 15% |  |  |  |  |  |  |  |
| Cc1nc2c(N)csc2c(=O)n1C1CCC(=O)NC1=O (stereo not drawn) [Compound 9, 3-(7-amino-2-methyl-4-oxothieno[3,2-d]pyrimidin-3(4H)-yl)piperidine-2,6-dione] |  |  |  |  | 24% | 12% |  |  |  |
| Cc1sc2nc(C)n(C3CCC(=O)NC3=O)c(=O)c2c1N (stereo not drawn) [Compound 7, 3-(5-amino-2,6-dimethyl-4-oxothieno[2,3-d]pyrimidin-3(4H)-yl)piperidine-2,6-dione] |  |  | 97 % DMSO | 96 % DMSO |  |  |  |  |  |
| Cc1nc2sc(Br)cc2c(=O)n1C1CCC(=O)NC1=O (stereo not drawn) [Compound 8, 3-(6-bromo-2-methyl-4-oxothieno[2,3-d]pyrimidin-3(4H)-yl)piperidine-2,6-dione] |  |  |  |  | 8% | 0% |  |  |  |
| Cc1ccc(NC(=O)NCc2scc3c(=O)n(C4CCC(=O)NC4=O)c(C)nc23)cc1Cl (stereo not drawn) [Compound 12, 1-(3-chloro-4-methylphenyl)-3-((3-(2,6-dioxopiperidin-3-yl)-2-methyl-4-oxo-3,4-dihydrothieno[3,4-d]pyrimidin-7-yl)methyl)urea] | 0% | 21% | 0 % DMSO | 0 % DMSO | 16% | 45% | 28% | 60% | inhibition at 1 µM (IL-6; 1 μM): 17%; inhibition at 10 µM (IL-6; 10 μM): 53%; inhibition at 1 µM (IL-1β; 1 μM): 80%; inhibition at 10 µM (IL-1β; 10 μM): 92%; Helios % Degradation at 15 μM (Helios): 49%; Helios % Degradation at 30 μM (Helios): 69%; IL-2 Fold Change (IL-2; 1 μM): 3.6 Fold Change; IL-2 Fold Change (IL-2; 10 μM): 3.1 Fold Change; inhibition at 1 µM (TNFα; 1 μM): 79%; inhibition at 10 µM (TNFα; 10 μM): 91%; GSPT1 % Degradation at 15 μM (GSPT1): 96%; GSPT1 % Degradation at 30 μM (GSPT1): 97% |
